Experimental data from patent US10988478B1, “Pyrazolo[1,5a]pyrimidine derivatives as IRAK4 modulators” (Genentech, Inc., priority 2015, dated 2021).

Each compound was assayed against human IRAK4 (Homo sapiens (Human), UniProt Q9NWZ3) (assay: IRAK4 kinase inhibition, Transcreener fluorescence polarization ADP assay). Conditions: recombinant full-length His6-IRAK4; 125 uM ATP; 90 min; Ki computed using ATP Km 642 uM.
Assay type: biochemical
Procedure: Compounds were assayed for inhibition of human IRAK4 and IRAK1 catalytic activity using recombinant enzyme produced from insect cells. Full-length IRAK4 protein, carrying an N-terminal His6-Tag, was obtained from Life Technologies (Carlsbad, Calif., USA). The IRAK1 construct was produced internally and was comprised of IRAK1 residues Arg194 to Ser712, preceded by an NH2-terminal His6 tag and the coding sequence for glutathione-S-transferase.

Chain of human IRAK4 (Q9NWZ3 whole entry): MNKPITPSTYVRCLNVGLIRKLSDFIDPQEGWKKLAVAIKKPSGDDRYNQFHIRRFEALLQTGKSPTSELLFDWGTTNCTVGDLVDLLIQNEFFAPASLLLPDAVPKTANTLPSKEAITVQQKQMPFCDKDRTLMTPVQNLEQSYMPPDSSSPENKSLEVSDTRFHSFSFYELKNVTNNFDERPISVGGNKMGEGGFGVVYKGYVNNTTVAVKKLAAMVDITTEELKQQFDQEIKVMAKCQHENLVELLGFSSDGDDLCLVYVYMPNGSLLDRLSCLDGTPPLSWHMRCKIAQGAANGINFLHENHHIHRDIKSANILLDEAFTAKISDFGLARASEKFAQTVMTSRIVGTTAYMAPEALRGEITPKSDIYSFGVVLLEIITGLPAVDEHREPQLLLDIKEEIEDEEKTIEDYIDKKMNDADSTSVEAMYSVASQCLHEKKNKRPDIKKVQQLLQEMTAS

| Compound | Ki [nM] |
| --- | --- |
| CC(C)(O)[C@]1(C)Cc2cc(NC(=O)c3cnn4cccnc34)c(N3CCC(CO)CC3)cc2O1 [Example 354, (S)—N-(6-(4-(Hydroxymethyl)piperidin-1-yl)-2-(2-hydroxypropan-2-yl)-2-methyl-2,3-dihydrobenzofuran-5-yl)pyrazolo[1,5-a]pyrimidine-3-carboxamide] | 3 |
| CC1(CC#N)Cc2cc(NC(=O)c3cnn4cccnc34)c(N3CCOCC3)cc2O1 (stereo not drawn) [Example 386, N-[2-(Cyanomethyl)-2-methyl-6-morpholino-3H-benzofuran-5-yl]pyrazolo[1,5-a]pyrimidine-3-carboxamide] | 16 |
| C[C@@]1(CO)Cc2cc(NC(=O)c3cnn4cccnc34)c(N3CCC(F)(F)C3)cc2O1 [Example 67, N-[(2S)-6-(3,3-Difluoropyrrolidin-1-yl)-2-(hydroxymethyl)-2-methyl-3H-benzofuran-5-yl]pyrazolo[1,5-a]pyrimidine-3-carboxamide] | 4.4 |
| O=C(Nc1cc2c(cc1N1CCOCC1)O[C@](CO)(C(F)(F)F)C2)c1cnn2cccnc12 [Example 153, (R)—N-(2-(hydroxymethyl)-6-morpholino-2-(trifluoromethyl)-2,3-dihydrobenzofuran-5-yl)pyrazolo[1,5-a]pyrimidine-3-carboxamide] | 14 |
| CC1(C)Cc2cc(NC(=O)c3cnn4cccnc34)c(N3CCCOCC3)cc2O1 [Example 117, N-(2,2-dimethyl-6-(1,4-oxazepan-4-yl)-2,3-dihydrobenzofuran-5-yl)pyrazolo[1,5-a]pyrimidine-3-carboxamide] | 17 |
| CC1(CO)Cc2cc(NC(=O)c3cnn4cccnc34)c(N3CCC(C(O)C(F)F)CC3)cc2O1 (stereo not drawn) [Example 352, N-(6-(4-(2,2-Difluoro-1-hydroxyethyl)piperidin-1-yl)-2-(hydroxymethyl)-2-methyl-2,3-dihydrobenzofuran-5-yl)pyrazolo[1,5-a]pyrimidine-3-carboxamide] | 2 |
| CC(C)(O)[C@@]1(C)Cc2cc(NC(=O)c3cnn4cccnc34)c(N3CCN(CC(F)F)CC3)cc2O1 [Example 360, (R)—N-(6-(4-(2,2-Difluoroethyl)piperazin-1-yl)-2-(2-hydroxypropan-2-yl)-2-methyl-2,3-dihydrobenzofuran-5-yl)pyrazolo[1,5-a]pyrimidine-3-carboxamide] | 6.3 |
| CC1(C)Cc2cc(NC(=O)c3cnn4cccnc34)c(N3CCN(CC(N)=O)CC3)cc2O1 [Example 187, N-[6-[4-(2-amino-2-oxo-ethyl)piperazin-1-yl]-2,2-dimethyl-3H-benzofuran-5-yl]pyrazolo[1,5-a]pyrimidine-3-carboxamide] | 2 |
| CC1(C)Cc2cc(NC(=O)c3cnn4cccnc34)c(N3CCC4(CC3)CN(CC(F)(F)F)C4)cc2O1 [Example 249, N-(2,2-dimethyl-6-(2-(2,2,2-trifluoroethyl)-2,7-diazaspiro[3.5]nonan-7-yl)-2,3-dihydrobenzofuran-5-yl)pyrazolo[1,5-a]pyrimidine-3-carboxamide] | 47 |
| CC(C)(O)[C@@]1(C)Cc2cc(NC(=O)c3cnn4cccnc34)c(O[C@H]3CC[C@H](O)CC3)cc2O1 [Example 315, N-[(2R)-6-(trans-4-Hydroxycyclo-hexoxy)-2-(1-hydroxy-1-methyl-ethyl)-2-methyl-3H-benzofuran-5-yl]pyrazolo[1,5-a]pyrimidine-3-carboxamide] | 520 |
| CC(C)NC(=O)CN1CCN(c2cc3c(cc2NC(=O)c2cnn4cccnc24)CC(C)(C)O3)CC1 [Example 225, N-(6-(4-(2-(Isopropylamino)-2-oxoethyl)piperazin-1-yl)-2,2-dimethyl-2,3-dihydrobenzofuran-5-yl)pyrazolo[1,5-a]pyrimidine-3-carboxamide] | 45 |
| O=C(Nc1cc2c(cc1N1CCOCC1)C(=O)N(CC1(CO)COC1)C2)c1cnn2cccnc12 [Example 268, N-[2-[[3-(Hydroxymethyl)oxetan-3-yl]methyl]-6-morpholino-1-oxo-isoindolin-5-yl]pyrazolo[1,5-a]pyrimidine-3-carboxamide] | 75 |
| CCC(O)(CC)CN1CCN(c2cc3c(cc2NC(=O)c2cnn4cccnc24)CC(C)(C)O3)CC1 [Example 435, N-(6-(4-(2-Ethyl-2-hydroxybutyl)piperazin-1-yl)-2,2-dimethyl-2,3-dihydrobenzofuran-5-yl)pyrazolo[1,5-a]pyrimidine-3-carboxamide] | 53 |
| C[C@@]1(CO)CCc2cc(NC(=O)c3cnn4cccnc34)c(N3CCOCC3)cc2O1 (single isomer, unassigned) [Example 433] | 14 |
| CC1(C)Cc2cc(NC(=O)c3cnn4cccnc34)c(C3CCN(CC(F)F)CC3)cc2O1 [Example 89, N-[6-[1-(2,2-Difluoroethyl)-4-piperidyl]-2,2-dimethyl-3H-benzofuran-5-yl]pyrazolo[1,5-a]pyrimidine-3-carboxamide] | 26 |
| C[C@@H](O)[C@H](F)CN1Cc2cc(NC(=O)c3cnn4cccnc34)c(N3CCOCC3)cc2C1=O [Example 562, N-(2-((2R,3R)-2-fluoro-3-hydroxybutyl)-6-morpholino-1-oxoisoindolin-5-yl)pyrazolo[1,5-a]pyrimidine-3-carboxamide] | 1.9 |
| C[C@@]1(CO)Cc2cc(NC(=O)c3cnn4cccnc34)c(N3CCC4(CC3)CNC4=O)cc2O1 [Example 321, (S)-N-(2-(hydroxymethyl)-2-methyl-6-(1-oxo-2,7-diazaspiro[3.5]nonan-7-yl)-2,3-dihydrobenzofuran-5-yl)pyrazolo[1,5-a]pyrimidine-3-carboxamide] | 11 |
| CC1(C)Cc2cc(NC(=O)c3cnn4cccnc34)c(N3CC[C@@H](CO)C3)cc2O1 [Example 15, (R)—N-(6-(3-(Hydroxymethyl)pyrrolidin-1-yl)-2,2-dimethyl-2,3-dihydrobenzofuran-5-yl)pyrazolo[1,5-a]pyrimidine-3-carboxamide] | 12 |
| CN1CCc2cc(NC(=O)c3cnn4cccnc34)c(N3CCOCC3)cc2C1=O [Example 401, N-(2-Methyl-7-morpholino-1-oxo-1,2,3,4-tetrahydroisoquinolin-6-yl)pyrazolo[1,5-a]pyrimidine-3-carboxamide] | 97 |
| C[C@@]1(CO)Cc2cc(NC(=O)c3cnn4cccnc34)c(N3CCC(C4(O)CC4)CC3)cc2O1 [Example 342, N-[(2S)-6-[4-(1-hydroxycyclopropyl)-1-piperidyl]-2-(hydroxymethyl)-2-methyl-3H-benzofuran-5-yl]pyrazolo[1,5-a]pyrimidine-3-carboxamide] | 3.9 |
| CC(C)(O)[C@H](F)CN1Cc2cc(NC(=O)c3cnn4cccnc34)c(N3CCC(F)(F)C3)cc2C1=O [Example 261, N-[6-(3,3-Difluoropyrrolidin-1-yl)-2-[(2R)-2-fluoro-3-hydroxy-3-methyl-butyl]-1-oxo-isoindolin-5-yl]pyrazolo[1,5-a]pyrimidine-3-carboxamide] | 2 |
| CC1(C)Cc2cc(NC(=O)c3cnn4cccnc34)c(N3CCC(C(O)C(F)(F)F)CC3)cc2O1 (stereo not drawn) [Example 245, N-(2,2-Dimethyl-6-(4-(2,2,2-trifluoro-1-hydroxyethyl)piperidin-1-yl)-2,3-dihydrobenzofuran-5-yl)pyrazolo[1,5-a]pyrimidine-3-carboxamide] | 10 |
| CCN1CCN(c2cc3c(cc2NC(=O)c2cnn4cccnc24)CC(C)(C)O3)CC1 [Example 453, N-(6-(4-ethylpiperazin-1-yl)-2,2-dimethyl-2,3-dihydrobenzofuran-5-yl)pyrazolo[1,5-a]pyrimidine-3-carboxamide] | 44 |
| C[C@]1(CO)Cc2cc(NC(=O)c3cnn4cccnc34)c(N3CCC([C@@](C)(O)C(F)(F)F)CC3)cc2O1 [Example 409, N—((R)-2-(hydroxymethyl)-2-methyl-6-(4-((R)-1,1,1-trifluoro-2-hydroxypropan-2-yl)piperidin-1-yl)-2,3-dihydrobenzofuran-5-yl)pyrazolo[1,5-a]pyrimidine-3-carboxamide] | 6.7 |
| CC1(C)Cc2cc(NC(=O)c3cnn4cccnc34)c(-n3ccnc3)cc2O1 [Example 103, N-(6-imidazol-1-yl-2,2-dimethyl-3H-benzofuran-5-yl)pyrazolo[1,5-a]pyrimidine-3-carboxamide] | 88 |
| C[C@]1(CO)Cc2cc(NC(=O)c3cnn4cccnc34)c(N3CCC(C4(O)CC4)CC3)cc2O1 [Example 341, N-[(2R)-6-[4-(1-hydroxycyclopropyl)-1-piperidyl]-2-(hydroxymethyl)-2-methyl-3H-benzofuran-5-yl]pyrazolo[1,5-a]pyrimidine-3-carboxamide] | 4 |
| CC1(C)Cc2cc(NC(=O)c3cnn4cccnc34)c(OC[C@@H]3[C@H]4CN(CC(F)F)C[C@@H]34)cc2O1 [Example 294, N-(6-(((1R,5S,6R)-3-(2,2-difluoroethyl)-3-azabicyclo[3.1.0]hexan-6-yl)methoxy)-2,2-dimethyl-2,3-dihydrobenzofuran-5-yl)pyrazolo[1,5-a]pyrimidine-3-carboxamide] | 14 |
| CC1(CC(N)=O)CCN(c2cc3c(cc2NC(=O)c2cnn4cccnc24)CC(C)(C)O3)CC1 [Example 535, N-[6-[4-(2-Amino-2-oxo-ethyl)-4-methyl-1-piperidyl]-2,2-dimethyl-3H-benzofuran-5-yl]pyrazolo[1,5-a]pyrimidine-3-carboxamide] | 3.1 |
| COC1C2CCC1N(c1cc3c(cc1NC(=O)c1cnn4cccnc14)CC(C)(C)O3)C2 (stereo not drawn) [Example 239, N-(6-(7-Methoxy-2-azabicyclo[2.2.1]heptan-2-yl)-2,2-dimethyl-2,3-dihydrobenzofuran-5-yl)pyrazolo[1,5-a]pyrimidine-3-carboxamide] | 120 |
| CC1(C)CNc2cc(NC(=O)c3cnn4cccnc34)c(N3CCOCC3)cc2O1 [Example 5, N-(2,2-Dimethyl-7-morpholino-3,4-dihydro-2H-benzo[b][1,4]oxazin-6-yl)pyrazolo[1,5-a]pyrimidine-3-carboxamide] | 54 |
